Experimental findings from ChEMBL document CHEMBL4732085, “Di-aryl guanidinium derivatives: Towards improved α2-Adrenergic affinity and antagonist activity” (Eur J Med Chem, 2021) are described below.

In assay [1] the target is T1, Adrenergic receptor alpha-2 (Homo sapiens, UniProt P08913+P18825+P18089).
T1 sequence (P08913 whole entry): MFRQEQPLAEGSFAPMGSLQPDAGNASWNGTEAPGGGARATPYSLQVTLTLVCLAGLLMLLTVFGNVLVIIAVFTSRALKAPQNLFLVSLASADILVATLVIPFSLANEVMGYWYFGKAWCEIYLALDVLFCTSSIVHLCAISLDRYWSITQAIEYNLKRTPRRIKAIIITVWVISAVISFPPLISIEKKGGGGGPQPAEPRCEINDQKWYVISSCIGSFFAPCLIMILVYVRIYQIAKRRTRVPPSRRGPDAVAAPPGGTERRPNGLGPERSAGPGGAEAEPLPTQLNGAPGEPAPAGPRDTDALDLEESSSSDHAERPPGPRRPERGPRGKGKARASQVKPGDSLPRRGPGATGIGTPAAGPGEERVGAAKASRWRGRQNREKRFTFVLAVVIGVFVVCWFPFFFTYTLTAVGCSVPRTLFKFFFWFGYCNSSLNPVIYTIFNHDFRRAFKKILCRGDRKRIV
T1 sequence (P18825 whole entry): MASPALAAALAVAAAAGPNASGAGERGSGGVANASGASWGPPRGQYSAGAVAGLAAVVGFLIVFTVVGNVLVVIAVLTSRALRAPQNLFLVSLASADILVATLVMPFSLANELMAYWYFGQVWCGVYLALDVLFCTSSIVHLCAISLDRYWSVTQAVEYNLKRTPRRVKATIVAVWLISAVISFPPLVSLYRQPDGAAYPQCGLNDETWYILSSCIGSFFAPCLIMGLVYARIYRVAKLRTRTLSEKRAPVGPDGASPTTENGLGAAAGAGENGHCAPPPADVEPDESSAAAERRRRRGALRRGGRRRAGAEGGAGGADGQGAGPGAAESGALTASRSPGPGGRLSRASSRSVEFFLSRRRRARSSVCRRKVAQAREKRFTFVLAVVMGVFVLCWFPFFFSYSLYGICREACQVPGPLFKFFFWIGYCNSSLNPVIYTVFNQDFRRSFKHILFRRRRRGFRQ
T1 sequence (P18089 whole entry): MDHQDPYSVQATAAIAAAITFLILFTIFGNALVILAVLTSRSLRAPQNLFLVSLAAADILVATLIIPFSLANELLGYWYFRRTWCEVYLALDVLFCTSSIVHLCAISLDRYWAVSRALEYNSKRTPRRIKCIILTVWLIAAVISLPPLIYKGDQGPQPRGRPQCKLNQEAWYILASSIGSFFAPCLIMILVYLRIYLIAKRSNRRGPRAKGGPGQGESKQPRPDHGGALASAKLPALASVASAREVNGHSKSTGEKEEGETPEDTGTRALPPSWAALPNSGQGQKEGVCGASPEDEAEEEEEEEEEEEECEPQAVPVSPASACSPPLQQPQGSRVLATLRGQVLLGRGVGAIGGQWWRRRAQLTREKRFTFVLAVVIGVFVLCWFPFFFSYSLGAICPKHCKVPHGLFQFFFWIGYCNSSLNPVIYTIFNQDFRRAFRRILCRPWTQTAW
Description: Displacement of [3H]-RX821002 from adrenergic alpha 2 receptor in human brain membrane by liquid scintillation spectroscopy. The assay is classed as cell membranes.

Assay [2] has as its target T1, Adrenergic receptor alpha-2. Nature of the assay: Agonist activity at adrenergic alpha 2 receptor in human brain membrane assessed as stimulation of [35S]GTPgammaS binding in presence of adrenergic alpha 2 receptor antagonist RX821002 by liquid scintillation spectroscopy. The assay is classed as functional, cell membranes. On the technique in general: Binding of GTPγS marks nucleotide exchange on a G protein.

Assay [3] addresses T2, Adrenergic receptor alpha-2 (Homo sapiens) (UniProt P08913+P18825+P18089). Nature of the assay: Agonist activity at adrenergic alpha 2 receptor in human brain membrane assessed as stimulation of [35S]GTPgammaS binding at 10 uM by liquid scintillation spectroscopy relative to control. The following applies: filed as agonist. Format: functional, cell membranes.
Assay [4] concerns the target T2, Adrenergic receptor alpha-2 (Homo sapiens). Description: Antagonist activity at adrenergic alpha 2 receptor in human brain membrane assessed as inhibition of UK14304-induced stimulation of [35S]GTPgammaS binding at 10 uM by liquid scintillation spectroscopy (reference value: 153 +/- 4%). Format: functional, cell membranes. The following applies: filed as antagonist.

Assay [5] has as its target T1, Adrenergic receptor alpha-2. Description: Agonist activity at adrenergic alpha 2 receptor in human brain membrane assessed as stimulation of [35S]GTPgammaS binding by liquid scintillation spectroscopy. Format: functional, cell membranes.
Assay [6] has the same target. Nature of the assay: Antagonist activity at adrenergic alpha 2 receptor in human brain membrane assessed as inhibition of UK14304-induced stimulation of [35S]GTPgammaS binding by liquid scintillation spectroscopy (reference value: 1.77 +/- […]). Format: functional, cell membranes.
The target of assay [7] is T2, Adrenergic receptor alpha-2 (Homo sapiens). Description: Agonist activity at adrenergic alpha 2 receptor in human brain membrane assessed as stimulation of [35S]GTPgammaS binding at 10 uM in presence of adrenergic alpha 2 receptor antagonist RX821002 by liquid scintillation spectroscopy. The assay is classed as functional, cell membranes. The following applies: filed as agonist.

Turning to `Cl.Cl.N=C(N)Nc1ccc(Cc2ccc(NC3=NCCN3)nc2)cc1`, the inhibition constant Ki – broadly, a dissociation constant, usually derived from enzyme kinetics or from competition with a known ligand – in assay [1] amounted to 0.674 µM.
`Cl.Cl.N=C(N)Nc1ccc(Cc2ccc(N=C3NCCN3)cc2)cc1`: the half-maximal effective concentration (EC50) (in general, the concentration that produces a half-maximal response) in assay [2] is 64020 µM; in assay [5] it was 18 µM; in assay [6] it was 20.2 µM. The Emax (in general, the greatest response seen or fitted, relative to the assay's reference) turned out to be 126% in assay [3], 110% in assay [4] and 122% in assay [7]. Moreover, the inhibition constant (Ki) in assay [1] turned out to be 0.0123 µM.
In turn, `N=C(N)Nc1ccc2c(c1)CCCC2` showed an inhibition constant Ki in assay [1] of 0.0776 µM.
In assay [1], `CCCNC(=N)Nc1ccc(Cc2ccc(NC3=NCCN3)cc2)cn1.Cl.Cl` returned a Ki of 0.0676 µM. Besides, the maximal response (Emax) in assay [4] worked out at 122%. Further, in assay [6], the 50% effective concentration (EC50) worked out at 30.8 µM.
For `N=C(N)NC1C=C2CCCCC2=CN1` (stereo unspecified), the Ki in assay [1] came out at 0.1659 µM.
For the compound `Cl.Cl.N=C(NCc1ccco1)Nc1ccc(Cc2ccc(NC3=NCCN3)cc2)cc1`, the values for the EC50 in assay [2], in assay [5] and in assay [6] were 2356 µM, 534 µM and 11.6 µM, respectively. In addition, the Emax in assay [3] stood at 168%; in assay [4], 155%; in assay [7], 130%. Moreover, the Ki in assay [1] is 0.00177 µM.
`c1cc2c(cc1NC1=NCCN1)CCCC2`: the inhibitory constant (Ki) in assay [1] turned out to be 0.0468 µM.
As for `CCCNC(=N)Nc1ccc(Cc2ccc(NC3=NCCN3)cc2)cc1.Cl.Cl`, the EC50 was determined as 487 µM in assay [2], 46 µM in assay [5] and 30 µM in assay [6]. In addition, the Emax in assay [3] amounted to 139%; in assay [4], 171%; in assay [7] it was 110%. The compound further displayed a Ki in assay [1] of 0.00082 µM.
As to `Cl.Cl.N=C(NCc1ccco1)Nc1ccc(Cc2ccc(NC3=NCCN3)cc2)cn1`, the half-maximal effective concentration (EC50) was 252 µM in assay [2], 194 µM in assay [5] and 52.3 µM in assay [6]. Moreover, the Emax in assay [3] stood at 149%; in assay [4] it was 96%; in assay [7], 154%. For the same compound, the inhibition constant (Ki) in assay [1] turned out to be 0.0339 µM.
The compound `Cl.Cl.N=C(NCc1ccco1)Nc1ccc(CCc2ccc(NC3=NCCN3)cc2)cc1` displayed an inhibition constant Ki in assay [1] of 0.418 µM.
Still for that read-out and setting: to `CCCNC(=N)Nc1ccc(Cc2ccc(NC(=N)NCCC)cc2)cc1.Cl.Cl` belongs 0.742 µM.
`Cl.Cl.N=C(NCc1ccco1)Nc1ccc(Cc2ccc(NC3=NCCN3)nc2)cc1` came in with an inhibition constant Ki in assay [1] of 0.433 µM.
As for `Cl.Cl.N=C(N)Nc1ccc(Cc2ccc(NC3=NCCN3)nc2)cn1`, the inhibitory constant (Ki) in assay [1] turned out to be 0.138 µM.
Consider `Cl.Cl.N=C(NCc1ccco1)Nc1ccc(Cc2ccc(NC3=NCCN3)nc2)cn1`, for which the Ki in assay [1] came to 0.263 µM.
As to `CCCNC(=N)Nc1ccc(CCc2ccc(NC3=NCCN3)cc2)cc1.Cl.Cl`, the inhibitory constant (Ki) in assay [1] is 1.745 µM.
Still for that read-out and setting: to `Cl.Cl.N=C(NCCO)Nc1ccc(Cc2ccc(NC(=N)NCCO)cc2)cc1` belongs 2.485 µM.
Still for that read-out and setting: to `Cl.Cl.N=C(NCc1ccco1)Nc1ccc(Cc2ccc(NC(=N)NCc3ccco3)cc2)cc1` belongs 0.355 µM.
With `CCCNC(=N)Nc1ccc(Cc2ccc(NC3=NCCN3)nc2)cc1.Cl.Cl`, the Ki in assay [1] was determined as 0.12 µM. In assay [4], the Emax came to 139%. Further, the EC50 in assay [6] is 4.14 µM.
In the same order, the values of `Cl.Cl.N=C(N)Nc1ccc(Cc2ccc(NC3=NCCN3)cc2)cn1` are 0.0868 µM, 140% and 39.9 µM.
Turning to `COC1(C2=NCCN2)COc2ccccc2O1` (stereo unspecified), in assay [4], the Emax is 98%. For the same compound, the 50% effective concentration (EC50) in assay [6] worked out at 87.2 µM.
As for `CCCNC(=N)Nc1ccc(Cc2ccc(NC3=NCCN3)nc2)cn1.Cl.Cl`, the Ki in assay [1] is 0.0899 µM. Also, the Emax in assay [4] was determined as 127%. Moreover, the 50% effective concentration (EC50) in assay [6] came to 10.2 µM.
In assay [1], `CN(C)c1ccc(/N=C(/N)NCc2ccco2)cc1` yielded a Ki of 0.2318 µM.
The same measure, in the same setting: to `Cl.Cl.N=C(N)Nc1ccc(CCc2ccc(N=C3NCCN3)cc2)cc1` belongs 0.175 µM.
